From PMC5984089, “FBXW7 regulates DISC1 stability via the ubiquitin-proteosome system” (Molecular Psychiatry, 2017)
Residues, ends and D or L forms follow the SMILES beside them. *: point of attachment. Cbz = O=C(OCc1ccccc1)*

System: HA-DISC1
Test: DISC1 ubiquitination in transfected HEK293 cells, immunoprecipitation
Assay type: cell-based, human
Procedure: Briefly, detergent-soluble proteins were isolated from cells by disruption in lysis buffer 20 mM Tris-HCl (pH 7.5), 150 mM NaCl, 1 mM Na2EDTA, 1 mM EGTA, 1% triton, 2.5 mM sodium pyrophosphate, 1 mM β-glycerophosphate, 1 mM Na3VO4, 1 μg ml^–1 leupeptin, 10 mM DTT with Roche protease inhibitor, phosSTOP (Roche, 04906837001). Detergent-insoluble proteins were removed by centrifugation at 10 000 g for 10 min, and the soluble fraction was retained. Cell lysates were adjusted to equal protein amount (1 μg μl^–1) using cell lysis buffer. Cell lysates normalized for the protein concentration were incubated with mouse IgG (Millipore, 12487) Protein A agarose beads for 2 h at 4 °C. […] The complexes were analyzed on SDS PAGE. […]
Antibodies used in this study are detailed in Supplementary Table 1. […] Chemiluminescent images of immune detected bands were recorded on blue-light sensitive autoradiography X-ray films, which were then developed using the Kodak X-Omat Model 2000 processor and band intensities were quantified using image J. Alternatively blots were visualized using the Licor Odyssey system and quantified using LICOR Image Studio Lite (Licor Biosciences).
Figure 1 DISC1 turnover is regulated by the ubiquitin-proteosome system. […] HA-DISC1 levels were evaluated using densitometry (bar-chart, n=3). ‘Nt’ indicates no treatment control. […]

SMILES: CC(C)C[C@@H](C=O)NC(=O)[C@H](CC(C)C)NC(=O)[C@H](CC(C)C)NC(=O)OCc1ccccc1 [MG132] (Cbz-Leu-Leu-Leu-aldehyde)
- co-purification of HA-DISC1 with ubiquitin (MG132 10 μM, 30 min exposure, Figure 1c): HA-DISC1 immunoprecipitates co-purify with ubiquitin after a 30 min exposure to MG132
- DISC1 ubiquitination with over-expressed DISC1 or ubiquitin, further effect of MG132 (MG132 10 µM, Supplementary Figure 1a): not enhanced further by MG132
